Like-named read-outs stand apart in the source and are kept apart here.
How the values were obtained:
[1] = molecular target: T1, Human Tryptophan 2,3-dioxygenase (TDO) (Homo sapiens, UniProt P48775); test: Human TDO enzymatic assay (kynurenine level); format: biochemical
T1 construct: His tag (N); made in house; host or cells: E. coli
Outline: (§1)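 Compound is mixed with His-tagged enzyme from E. coli in pH 6.5 phosphate buffer containing ascorbate, methylene blue and catalase, at room temperature. IDO uses 6 nM enzyme and 10 μM Trp for 20 min. TDO uses 1 nM enzyme and 350 μM Trp for 70 min. TCA stops the reaction, and IC50 is derived from kynurenine levels.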

[2] = molecular target: T2, human TDO (TDO-expressing HEK293 cells) (Homo sapiens, UniProt P48775); test: Cell based kynurenine assay, TDO-expressing HEK293 cell clones
T2 construct: expressed in transfected cells
Outline: (§2)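 HEK293 stable clones (hIDO1 or hTDO, CMV-driven; G418-selected); 2.5×10^4 cells/well; compound serial dilution, 24 h, 37 °C, 5% CO2; supernatant kynurenine; IC50 by nonlinear fit.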

[3] = molecular target: T3, Human Indoleamine 2,3-dioxygenase (IDO) (Homo sapiens, UniProt P14902); test: Human IDO enzymatic assay (kynurenine level); format: biochemical
T3 construct: His tag (N); made in house; host or cells: E. coli
Outline: as §1

[4] = molecular target: T4, human IDO (IDO1-expressing HEK293 cells) (Homo sapiens, UniProt P14902); test: Cell based kynurenine assay, IDO1-expressing HEK293 cell clones
T4 construct: expressed in transfected cells
Outline: as §2

[5] = biochemical assay, comparative examples, 4,6 versus 5,7 indazole, read-out: TDO
[6] = cellular assay, HEK293, 24 hours, comparative examples, read-out: hTDO
[7] = biochemical assay, comparative examples, 4,6 versus 5,7 indazole, read-out: IDO1
[8] = cellular assay, HEK293, 24 hours, comparative examples, read-out: hIDO1

T3 sequence (P14902 whole entry): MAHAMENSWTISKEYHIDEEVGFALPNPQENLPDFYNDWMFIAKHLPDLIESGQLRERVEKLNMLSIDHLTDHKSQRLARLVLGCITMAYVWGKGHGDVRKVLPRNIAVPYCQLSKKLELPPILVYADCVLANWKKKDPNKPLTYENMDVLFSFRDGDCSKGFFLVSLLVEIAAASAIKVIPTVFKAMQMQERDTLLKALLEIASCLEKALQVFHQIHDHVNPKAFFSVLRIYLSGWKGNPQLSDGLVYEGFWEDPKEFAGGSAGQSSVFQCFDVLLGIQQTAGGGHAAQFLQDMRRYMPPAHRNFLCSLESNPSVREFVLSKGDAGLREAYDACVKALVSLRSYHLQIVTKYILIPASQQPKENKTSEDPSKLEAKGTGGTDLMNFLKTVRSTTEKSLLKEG
T4 sequence (P14902 whole entry): as above
T1 sequence (P48775 whole entry): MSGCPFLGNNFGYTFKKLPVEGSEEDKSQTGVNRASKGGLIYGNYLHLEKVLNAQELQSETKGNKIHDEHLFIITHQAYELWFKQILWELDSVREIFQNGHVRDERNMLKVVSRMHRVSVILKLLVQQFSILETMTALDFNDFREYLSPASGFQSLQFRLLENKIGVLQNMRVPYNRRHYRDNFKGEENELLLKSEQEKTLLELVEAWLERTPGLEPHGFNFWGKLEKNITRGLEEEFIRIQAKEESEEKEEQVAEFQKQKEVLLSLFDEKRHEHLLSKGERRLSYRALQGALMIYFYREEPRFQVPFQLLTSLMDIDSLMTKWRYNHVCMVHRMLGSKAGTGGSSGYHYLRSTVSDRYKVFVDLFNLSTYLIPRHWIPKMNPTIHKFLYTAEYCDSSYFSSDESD
T2 sequence (P48775 whole entry): as above

Row | IC50 ([1]; 1 nM TDO, 350 μM L-Trp, geometric mean, read-out: TDO GMean: IC50 (μM) (Biochemical Assay)) [µM] | IC50 ([2]; TDO-expressing HEK293 cells, 24 hours, geometric mean, read-out: HEK293 TDO Kynurenine GMean IC50 (μM) (Cellular Assay)) [µM] | IC50 ([3]; 6 nM IDO, 10 μM L-Trp, geometric mean, read-out: IDO1 GMean: IC50 (μM) (Biochemical Assay)) [µM] | IC50 ([4]; IDO1-expressing HEK293 cells, 24 hours, geometric mean, read-out: HEK293 IDO1 Kynurenine GMean IC50 (μM) (Cellular Assay)) [µM] | IC50 [1, 5] [µM] | IC50 [2, 6] [µM] | IC50 [3, 7] [µM] | IC50 [4, 8] [µM] | Compound
1 | – | – | – | – | 0.08 | 0.01 | 0.95 | 6.94 | CC(C)(C1CCOCC1)C(O)c1cc(Cl)cc2[nH]ncc12 (stereo not shown) [drawing 817]
2 | – | – | – | – | 0.22 | 2.41 | 0.16 | 0.4 | OC1(c2cc(Cl)cc3cn[nH]c23)CC2(CCOCC2)C1 [drawing 820]

More lines, now with the values behind:

Row | Compound | IC50 ([1]; 1 nM TDO, 350 μM L-Trp, geometric mean, read-out: TDO GMean: IC50 (μM) (Biochemical Assay)) [µM] | IC50 ([2]; TDO-expressing HEK293 cells, 24 hours, geometric mean, read-out: HEK293 TDO Kynurenine GMean IC50 (μM) (Cellular Assay)) [µM] | IC50 ([3]; 6 nM IDO, 10 μM L-Trp, geometric mean, read-out: IDO1 GMean: IC50 (μM) (Biochemical Assay)) [µM] | IC50 ([4]; IDO1-expressing HEK293 cells, 24 hours, geometric mean, read-out: HEK293 IDO1 Kynurenine GMean IC50 (μM) (Cellular Assay)) [µM] | IC50 [1, 5] [µM] | IC50 [2, 6] [µM] | IC50 [3, 7] [µM] | IC50 [4, 8] [µM]
3 | CC(C)(C1CCN(C(=O)Nc2ccc(C#N)nc2)CC1)C(O)c1cc(Cl)cc2cn[nH]c12 (stereo not shown) [Compound P-0570, 4-(1-(5-chloro-1H-indazol-7-yl)-1-hydroxy-2-methylpropan-2-yl)-N-(6-cyanopyridin-3-yl)piperidine-1-carboxamide] | 0.0001 to 10 | 0.0001 to 10 | 0.0001 to 10 | 0.0001 to 10 | – | – | – | –
4 | OC(c1cc(Cl)cc2cn[nH]c12)C1CCCCC1 (stereo not shown) [drawing 810] | – | – | – | – | 0.17 | 1.2 | 0.05 | 0.23
5 | COC12CCC(C(O)c3cc(Cl)cc4cn[nH]c34)(CC1)CC2 (stereo not shown) [drawing 812] | – | – | – | – | 1.18 | 2.63 | 0.11 | 0.08
6 | CC(C)(C1CCN(S(C)(=O)=O)CC1)C(O)c1cc(Cl)cc2cn[nH]c12 (stereo not shown) [drawing 814] | – | – | – | – | 0.15 | 0.42 | 0.03 | 0.08
7 | CC(C)(C1CCOCC1)C(O)c1cc(Cl)cc2cn[nH]c12 (stereo not shown) [drawing 816] | – | – | – | – | 1.18 | 2.63 | 0.11 | 0.08

— patent publication US10508085B2, “Compounds and methods for IDO and TDO modulation, and indications therefor” (Plexxikon Inc., priority 2016, dated 2019)
